Test results published in US12448394B2, “Heterocyclic pyrazole derivatives as type III receptor tyrosine kinase inhibitors” (DEVELOPMENT CENTER FOR BIOTECHNOLOGY, priority 2019, dated 2025).
pIC50: −log10 of the molar value.

Key:
[1] = system: HCC827 NSCLC cell with EGFR exon 19 deletion mutation; assay: HCC827 cell proliferation assay (counter screen); assay type: cell-based, human; conditions: Homo sapiens, HCC827 cells, 72 hours treatment, CellTiter96, read-out: anti-proliferation activity HCC827 EGFR Exon19 del, IC50 ranking
Protocol: (§1) Inhibitions of cell growths by compounds were measured using CellTiter™-96 assay. The cytotoxicities of compounds of the invention were evaluated in cell line panels with different signaling pathway dependencies, including MV4-11 human acute myeloid leukemia cell with FLT3-ITD mutation, Molm-14 human acute myeloid leukemia cell with FLT3-ITD mutation, THP-1 human acute monocytic leukemia cell with NRAS G12D mutation, A375 melanoma cell with BRAF V600E mutation, and HCC827 NSCLC cell with EGFR exon 19 deletion mutation.
(§2) HCC827 cells are non-small cell lung carcinoma (NSCLC) cells encoding EGFR exon 19 deletion mutation, which renders the cell growth dependent on EGFR signaling instead of class III RTKs signaling. HCC827 cells (catalog #CRL-2868) were obtained from the ATCC. Briefly, cells were cultured in RPMI1640 medium supplemented with 10% FBS and incubated at 37° C. in 5% CO2 atmosphere. Cells were allowed to expand until reaching saturation, at which point they were sub-cultured or harvested for assay use.
(§3) MV4-11, Molm-14, THP-1, A375, and HCC827 cells were seeded into 96-well plates at 6500, 25000, 5000, 2000 and 8000 cells/well, respectively, and incubated at 37° C., 5% CO2 overnight. Then, these seeded cells were treated with increasing concentrations of the test compounds and incubated for another 72 hours. At the end of the incubation, CellTiter96® AQueous One Solution Reagent (Promega, […]) was added and incubated for the additional 2˜4 hours. Cell viability was determined by measuring absorbance at 490 nm using EMax® microplate reader (Molecular Devices, San Jose, CA, USA).

[2] = system: MV4-11 human acute myeloid leukemia cell with FLT3-ITD mutation; assay: MV4-11 cell proliferation assay (CellTiter 96); assay type: cell-based; conditions: Homo sapiens, MV4-11, 72 h, MV4-11 cells, 72 hours treatment, CellTiter96; read-out: anti-proliferation activity MV4-11 (FLT3-ITD), IC50 ranking
Protocol: as §1
The compounds disclosed herein were tested in MV4-11 cell proliferation assay to determine their cellular potencies against FLT3 signal pathway dependent cell growths. MV4-11 cells are human acute myeloid leukemia (AML) cells harboring ligand-independent FLT3-ITD activating mutation, which renders the abnormal proliferation of AML cells FLT3 signaling pathway dependent. Inhibition of FLT3 kinase activity will result in reduced growths and/or cell deaths. MV4-11 cells (catalog #CRL-9591) were obtained from the American Type Culture Collection (ATCC, Manassas, VA). Briefly, cells were grown in IMDM medium supplemented with 10% heat inactivated fetal bovine serum and incubated at 37° C. in 5% CO2 atmosphere. Cells were allowed to expand until reaching saturation, at which point they were sub-cultured or harvested for assay use.
as §3

[3] = system: A375 melanoma cell with BRAF V600E mutation; assay: A375 cell proliferation assay (counter screen); assay type: cell-based, human; conditions: Homo sapiens, A-375, A375 cells, 72 hours treatment, CellTiter96, read-out: anti-proliferation activity A375 BRAF V600E, IC50 ranking
Protocol: as §1
as §2, with “A375” for “HCC827”, “melanoma” for “non-small cell lung carcinoma (NSCLC)”, “BRFA V600E” for “EGFR exon 19 deletion”, “BRAF” for “EGFR”, “#CRL-1619)” for “#CRL-2868)”, “DMEM containing” for “RPMI1640 medium supplemented with”
as §3

[4] = biological target: T1, MET kinase (Homo sapiens, UniProt P08581); assay: MET kinase assay (AlphaScreen, counter screen); assay type: biochemical; conditions: read-out: Ranking of IC50 values, MET
T1 construct: purchased SignalChem
T1 sequence (P08581 25-1390): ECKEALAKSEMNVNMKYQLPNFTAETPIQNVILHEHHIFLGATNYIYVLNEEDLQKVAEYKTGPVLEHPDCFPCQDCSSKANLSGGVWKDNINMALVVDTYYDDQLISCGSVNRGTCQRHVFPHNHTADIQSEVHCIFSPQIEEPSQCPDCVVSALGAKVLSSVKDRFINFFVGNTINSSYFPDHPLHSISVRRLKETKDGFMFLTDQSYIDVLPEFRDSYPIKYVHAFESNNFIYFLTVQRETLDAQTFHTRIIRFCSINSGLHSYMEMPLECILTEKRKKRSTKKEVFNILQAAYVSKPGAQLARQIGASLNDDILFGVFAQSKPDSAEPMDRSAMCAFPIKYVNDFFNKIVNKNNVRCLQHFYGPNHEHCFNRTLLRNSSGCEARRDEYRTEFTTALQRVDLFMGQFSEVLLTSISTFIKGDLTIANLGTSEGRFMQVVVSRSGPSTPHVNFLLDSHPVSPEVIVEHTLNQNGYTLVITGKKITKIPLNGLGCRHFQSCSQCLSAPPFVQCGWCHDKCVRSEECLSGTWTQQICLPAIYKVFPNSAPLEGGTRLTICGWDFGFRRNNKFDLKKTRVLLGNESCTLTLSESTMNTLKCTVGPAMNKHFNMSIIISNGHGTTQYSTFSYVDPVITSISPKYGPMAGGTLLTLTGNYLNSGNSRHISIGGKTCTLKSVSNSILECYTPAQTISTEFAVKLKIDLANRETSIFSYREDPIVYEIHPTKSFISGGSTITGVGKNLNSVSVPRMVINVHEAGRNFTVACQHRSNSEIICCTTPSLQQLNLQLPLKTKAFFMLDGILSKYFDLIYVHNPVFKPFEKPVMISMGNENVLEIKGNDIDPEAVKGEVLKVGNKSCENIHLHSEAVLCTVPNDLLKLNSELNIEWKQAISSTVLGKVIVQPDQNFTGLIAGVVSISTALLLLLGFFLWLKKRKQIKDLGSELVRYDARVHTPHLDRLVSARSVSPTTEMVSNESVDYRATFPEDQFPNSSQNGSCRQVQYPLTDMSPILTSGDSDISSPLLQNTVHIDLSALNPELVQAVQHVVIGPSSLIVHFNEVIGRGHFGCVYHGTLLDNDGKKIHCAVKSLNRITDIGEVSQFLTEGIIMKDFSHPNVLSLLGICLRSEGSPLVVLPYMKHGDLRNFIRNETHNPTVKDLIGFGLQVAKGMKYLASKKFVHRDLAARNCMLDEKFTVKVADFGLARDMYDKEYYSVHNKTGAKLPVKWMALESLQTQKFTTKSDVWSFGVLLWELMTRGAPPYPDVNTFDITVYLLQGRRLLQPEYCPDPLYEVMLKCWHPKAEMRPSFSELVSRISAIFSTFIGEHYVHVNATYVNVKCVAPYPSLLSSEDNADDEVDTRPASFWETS
Protocol: Because MET kinase belonged to Class VIII RTK family have one transmembrane a chain linked with one extracellular β chain which is different form Class III RTK family with 5 Immunoglobin-like extracellular domains. Standard assay conditions were 1 ng of recombinant MET kinase (SignalChem) with 3 ng Biotin-conjugated Poly-(Glu 4: Tyr 1) (Cisbio) in the assay buffer ([…], 10 mM MOPs, pH 7.0, 0.21 mM EDTA, 0.5% glycerol, 1 mg/mL BSA, 0.01% 2-mercaptoethanol, 0.001% Brij35, 10 mM MgCl2) in a final volume of 25 μL. Reactions were incubated at 30° C. for 45 min and stopped by adding 5 μL of 50 mM EDTA. Analysis of resulting product using an AlphaScreen kit and counted with Enspire Alpha (PerkinElmer). […] The IC50 values of inhibitors were determined after carrying out assays with each compound at serially diluted concentrations in duplication. The results were analyzed using linear regression software (GraphPad Prism 5; GraphPad Software Inc.)

[5] = system: Molm-14 human acute myeloid leukemia cell with FLT3-ITD mutation; assay: Molm-14 cell proliferation assay (CellTiter 96); assay type: cell-based; conditions: Homo sapiens; Molm-14 cells, 72 hours treatment, CellTiter96; read-out: anti-proliferation activity Molm-14 (FLT3-ITD), IC50 ranking
Protocol: as §1
The compounds disclosed herein were tested in Molm-14 cell proliferation assay to determine their cellular potencies against FLT3 signal pathway dependent cell growths. Molm-14 cells are human acute myeloid leukemia (AML) cells harboring ligand-independent FLT3-ITD activating mutation, which renders the abnormal proliferation of the AML cells FLT3 signaling pathway dependent. Inhibition of FLT3 kinase activity will result in reduced growths and/or cell deaths. […] Briefly, cells were grown in RPMI 1640 medium supplemented with 10% heat inactivated fetal bovine serum and incubated at 37° C. in 5% CO2 atmosphere. Cells were allowed to expand until reaching saturation, at which point they were sub-cultured or harvested for assay use.
as §3

[6] = biological target: T2, PDGFRα kinase (Homo sapiens, UniProt P16234); assay: PDGFRα kinase assay (AlphaScreen); assay type: biochemical; conditions: read-out: Ranking of IC50 values, PDGFRα
T2 construct: purchased SignalChem
T2 sequence (P16234 24-1089): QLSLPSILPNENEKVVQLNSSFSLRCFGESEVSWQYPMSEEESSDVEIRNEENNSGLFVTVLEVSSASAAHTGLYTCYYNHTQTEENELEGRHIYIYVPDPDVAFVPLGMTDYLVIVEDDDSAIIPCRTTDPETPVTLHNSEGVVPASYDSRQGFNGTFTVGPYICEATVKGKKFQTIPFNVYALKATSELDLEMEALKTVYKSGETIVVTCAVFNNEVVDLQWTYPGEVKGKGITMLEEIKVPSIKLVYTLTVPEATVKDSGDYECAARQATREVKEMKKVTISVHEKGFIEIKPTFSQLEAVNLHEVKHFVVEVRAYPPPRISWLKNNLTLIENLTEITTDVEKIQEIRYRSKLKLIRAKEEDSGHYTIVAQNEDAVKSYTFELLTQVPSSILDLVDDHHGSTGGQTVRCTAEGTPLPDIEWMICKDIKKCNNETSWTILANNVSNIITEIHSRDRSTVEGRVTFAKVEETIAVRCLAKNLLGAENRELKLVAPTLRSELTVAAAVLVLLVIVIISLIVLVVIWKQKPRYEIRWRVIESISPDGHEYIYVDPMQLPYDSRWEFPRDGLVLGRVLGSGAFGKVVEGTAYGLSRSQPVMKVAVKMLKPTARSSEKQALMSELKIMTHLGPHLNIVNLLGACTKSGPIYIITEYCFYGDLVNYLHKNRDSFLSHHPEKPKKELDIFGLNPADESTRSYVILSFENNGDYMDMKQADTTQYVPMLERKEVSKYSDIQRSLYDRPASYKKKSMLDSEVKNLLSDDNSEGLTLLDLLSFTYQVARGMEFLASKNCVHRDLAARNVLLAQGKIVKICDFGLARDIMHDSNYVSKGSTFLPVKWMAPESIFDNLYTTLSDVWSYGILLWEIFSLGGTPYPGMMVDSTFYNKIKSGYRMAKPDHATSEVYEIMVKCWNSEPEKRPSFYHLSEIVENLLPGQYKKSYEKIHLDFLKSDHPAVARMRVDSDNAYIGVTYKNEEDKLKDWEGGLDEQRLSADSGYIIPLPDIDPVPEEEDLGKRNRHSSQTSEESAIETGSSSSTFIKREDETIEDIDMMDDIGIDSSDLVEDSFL
Protocol: Inhibition of PDGFRα kinase activity by a test compound disclosed herein was estimated by AlphaScreen (PerkinElmer). Standard assay conditions were 1.5 ng of recombinant PDGFRα kinase (SignalChem) with 6 ng Biotin-conjugated Poly-(Glu 4: Tyr 1) (Cisbio) in the assay buffer (10 μM ATP, 10 mM MOPs, pH 7.0, 0.21 mM EDTA, 0.5% glycerol, 1 mg/mL BSA, 0.01% 2-mercaptoethanol, 0.001% Brij35, 10 mM MgCl2) in a final volume of 25 μL. Reactions were incubated at 30° C. for 30 min and stopped by adding […] of 50 mM EDTA. Analysis of resulting product using an AlphaScreen kit and counted with Enspire Alpha (PerkinElmer). […] The IC50 values of inhibitors were determined after carrying out assays with each compound at serially diluted concentrations in duplication. The results were analyzed using linear regression software (GraphPad Prism 5; GraphPad Software Inc.)

pIC50 [2] | pIC50 [4] | pIC50 [5] | pIC50 [6] | SMILES | pIC50 [1] | pIC50 [3]
> 7.52 | < 6.00 | > 7.52 | 8.00 to 9.00 | C[C@@H]1CN(Cc2ccc(-c3cc4c(s3)Cc3c(-c5ccc6cn[nH]c6c5)n[nH]c3-4)cn2)C[C@H](C)O1 [Compound 16, (2R,6S)-4-((5-(3-(1H-indazol-6-yl)-1,4-dihydro-thieno[2′,3′:4,5]cyclopenta [1,2-c]pyrazol-6-yl)pyridin-2-yl)methyl)-2,6-dimethylmorpholine] | < 5.00 | < 5.00
> 7.52 | < 6.00 | 7.00 to 7.52 | 7.52 to 8.00 | Cc1cc(-c2cc3c(s2)Cc2c(-c4ccc5cnn(C)c5c4)n[nH]c2-3)ccn1 [Compound 17, 3-(1-methyl-1H-indazol-6-yl)-6-(2-methylpyridin-4-yl)-1,4-dihydrothieno [2′,3′:4,5]cyclopenta[1,2-c] pyrazole] | < 5.00 | < 5.00
> 7.52 | < 6.00 | > 7.52 | 8.00 to 9.00 | c1cc(CN2CCOCC2)ncc1-c1cc2c(s1)Cc1c(-c3ccc4cn[nH]c4c3)n[nH]c1-2 [Compound 18, 4-((5-(3-(1H-indazol-6-yl)-1,4-dihydrothieno[2′,3′:4,5]cyclopenta[1,2-c]pyrazol-6-yl)pyridin-2-yl)methyl) morpholine] | < 5.00 | < 5.00
> 7.52 | < 6.00 | > 7.52 | 8.00 to 9.00 | C[C@@H]1CN(C(=O)c2ccc(-c3cc4c(s3)Cc3c(-c5ccc6cnn(C)c6c5)n[nH]c3-4)cc2)C[C@H](C)O1 [Compound 19, ((2S,6R)-2,6-dimethyl-morpholino)(4-(3-(1-methyl-1H-indazol-6-yl)-1,4-dihydrothieno[2′,3′:4,5]cyclopenta[1,2-c]pyrazol-6-yl)phenyl)methanone] | < 5.00 | < 5.00
> 7.52 | < 6.00 | 7.00 to 7.52 | 8.00 to 9.00 | CC(c1ccc(-c2cc3c(s2)Cc2c(-c4ccc5cnn(C)c5c4)n[nH]c2-3)cc1)N1CCOCC1 (stereo not drawn) [Compound 20, 4-(1-(4-(3-(1-methyl-1H-indazol-6-yl)-1,4-dihydro-thieno[2′,3′:4,5]cyclopenta [1,2-c]pyrazol-6-yl)phenyl)ethyl)morpholine] | < 5.00 | < 5.00
> 7.52 | < 6.00 | > 7.52 | 8.00 to 9.00 | Cn1ncc2ccc(-c3n[nH]c4c3Cc3sc(-c5ccc(C(=O)N6CCOCC6)cc5)cc3-4)cc21 [Compound 21, (4-(3-(1-methyl-1H-indazol-6-yl)-1,4-dihydro-thieno[2′,3′:4,5]cyclopenta [1,2-c]pyrazol-6-yl)phenyl) (morpholino)methanone] | < 5.00 | < 5.00
> 7.52 | < 6.00 | 7.00 to 7.52 | 7.52 to 8.00 | Cn1ncc2ccc(-c3n[nH]c4c3Cc3sc(-c5ccc(CCN6CCOCC6)cc5)cc3-4)cc21 [Compound 22, 4-(4-(3-(1-methyl-1H-indazol-6-yl)-1,4-dihydro-thieno[2′,3′:4,5]cyclopenta [1,2-c]pyrazol-6-yl)phenethyl)morpholine] | < 5.00 | < 5.00
> 7.52 | < 6.00 | 7.00 to 7.52 | 8.00 to 9.00 | Cn1ncc2ccc(-c3n[nH]c4c3Cc3sc(-c5ccc(C(=O)N6CCOCC6)nc5)cc3-4)cc21 [Compound 23, (5-(3-(1-methyl-1H-indazol-6-yl)-1,4-dihydro-thieno[2′,3′:4,5]cyclopenta [1,2-c]pyrazol-6-yl)pyridin-2-yl)(morpholino) methanone] | < 5.00 | < 5.00
> 7.52 | < 6.00 | 7.00 to 7.52 | 8.00 to 9.00 | COc1cc(-c2cc3c(s2)Cc2c(-c4ccc5cnn(C)c5c4)n[nH]c2-3)ccc1CN1CCOCC1 [Compound 24, 4-(2-methoxy-4-(3-(1-methyl-1H-indazol-6-yl)-1,4-dihydrothieno[2′,3′:4,5]cyclopenta[1,2-c]pyrazol-6-yl)benzyl)morpholine] | < 5.00 | < 5.00
> 7.52 | < 6.00 | 7.00 to 7.52 | 8.00 to 9.00 | Cn1ncc2ccc(-c3n[nH]c4c3Cc3sc(-c5ccc(CN6CCOCC6)c(F)c5)cc3-4)cc21 [Compound 25, 4-(2-fluoro-4-(3-(1-methyl-1H-indazol-6-yl)-1,4-dihydrothieno[2′,3′:4,5]cyclopenta[1,2-c]pyrazol-6-yl)benzyl)morpholine] | < 5.00 | < 5.00
6.52 to 7.00 | < 6.00 | 6.52 to 7.00 | 7.52 to 8.00 | Cc1cc(-c2cc3c(s2)Cc2c(-c4ccc5cnn(C)c5c4)n[nH]c2-3)ccc1CN1CCOCC1 [Compound 26, 4-(2-methyl-4-(3-(1-methyl-1H-indazol-6-yl)-1,4-dihydrothieno[2′,3′:4,5]cyclopenta[1,2-c]pyrazol-6-yl)benzyl)morpholine] | < 5.00 | < 5.00
6.00 to 6.52 | < 6.00 | 5.00 to 6.00 | 6.52 to 7.00 | Cn1ncc2ccc(-c3n[nH]c4c3Cc3sc(-c5ccc(CN6CCOCC6)c(C(F)(F)F)c5)cc3-4)cc21 [Compound 27, 4-(4-(3-(1-methyl-1H-indazol-6-yl)-1,4-dihydrothieno[2′,3′:4,5]cyclopenta[1,2-c]pyrazol-6-yl)-2-(trifluoromethyl)benzyl)morpholine] | < 5.00 | < 5.00
